Assays:
stromelysin (MMP-3) = target: T1, stromelysin (MMP-3) (Homo sapiens, UniProt P08254); test: Enzymatic activity of the catalytic domain of human stromelysin (fluorogenic substrate); assay type: biochemical; details: pH=6.5, 15 min preincubation, fluorescence 328 nm (ex)/393 nm (em)
T1 construct: enzymatic activity of the catalytic domains of human stromelysin and of neutrophil collagenase; made in house
Protocol: (§1) Preparation and determination of the enzymatic activity of the catalytic domains of human stromelysin and of neutrophil collagenase:
(§2) The enzymes stromelysin (MMP-3) and neutrophil collagenase (MMP-8) were prepared according to Ye et al. (Biochemistry; 31 (1992) pages 11231–11235). To measure the enzyme activity or the enzyme inhibitor action, 70 μl of buffer solution and 10 μl of enzyme solution are incubated for 15 min with 10 μl of a 10% strength (v/v) aqueous dimethyl sulfoxide solution, which optionally contains the enzyme inhibitor. After addition of 10 μl of a 10% strength (v/v) aqueous dimethyl sulfoxide solution which contains 1 mmol/L of the substrate, the enzyme reaction is monitored by fluorescence spectroscopy (328 nm (ex)/393 nm(em)). The enzyme activity is shown as the extinction increase/min. The IC50 values listed in Table 2 are determined as those inhibitor concentrations which in each case led to a 50% inhibition of the enzyme.
(§3) The buffer solution contains 0.05% Brij (Sigma, Deisenhofen, Germany) and also 0.1 mol/L Tris/HCl, 0.1 mol/L NaCl, 0.01 mol/L CaCl2 and 0.1 mol/L piperazine-N,N′-bis[2-ethanesulfonic acid] (pH=6.5). The enzyme solution contains 5 μg/ml of one of the enzyme domains prepared according to Ye et al. The substrate solution contains 1 mmol/L of the fluorogenic substrate (7-methoxycoumarin-4-yl)acetyl-Pro-Leu-Gly-Leu-3-(2′,4′-dinitrophenyl)-L-2,3-diaminopropionyl-Ala-Arg-NH2 (Bachem, Heidelberg, Germany).

[1] = target: T2, neutrophil collagenase (MMP-8) (Homo sapiens, UniProt P22894); test: Enzymatic activity of the catalytic domain of neutrophil collagenase (fluorogenic substrate); assay type: biochemical; details: pH=6.5, 15 min preincubation, fluorescence 328 nm (ex)/393 nm (em), read-out: Neutr. collagenase IC50
T2 construct: enzymatic activity of the catalytic domains of human stromelysin and of neutrophil collagenase; made in house
T2 sequence (P22894 100-262 limits assumed): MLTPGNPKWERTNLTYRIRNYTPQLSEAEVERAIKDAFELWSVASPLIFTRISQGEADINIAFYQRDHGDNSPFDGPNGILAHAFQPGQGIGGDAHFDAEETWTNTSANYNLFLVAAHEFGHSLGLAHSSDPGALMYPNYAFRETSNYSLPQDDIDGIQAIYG
Protocol: as §1, §2, §3

T1 sequence (P08254 100-272 limits assumed): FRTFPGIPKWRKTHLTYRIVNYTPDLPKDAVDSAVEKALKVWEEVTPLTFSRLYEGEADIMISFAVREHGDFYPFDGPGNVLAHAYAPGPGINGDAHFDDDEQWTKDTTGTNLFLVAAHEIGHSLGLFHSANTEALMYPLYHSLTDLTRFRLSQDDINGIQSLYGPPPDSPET

Row | SMILES | IC50 (stromelysin (MMP-3)) [nM] | IC50 [1] [nM] | melting point
1 | CSCC[C@@H](NS(=O)(=O)c1ccc(-c2ccc(N(C)C)cc2)cc1)C(=O)O [Example 11] | 90 | 3 | 180 to 186 °C
2 | O=C(O)[C@@H](Cc1cccs1)NS(=O)(=O)c1ccc(-c2ccc(Cl)cc2)cc1 [Example 27] | 200 | 10 | > 200 °C (dec.)
3 | O=C(O)[C@H](Cc1cn(S(=O)(=O)c2ccc(Oc3ccccc3)cc2)cn1)NS(=O)(=O)c1ccc(Oc2ccccc2)cc1 [Example 31] | 1000 | 50 | 120 to 122 °C
4 | Br.CN(C)c1ccc(-c2ccc(S(=O)(=O)N[C@@H](CC(=O)O)C(=O)O)cc2)cc1 [Example 40] | 70 | 2 | 121 to 127 °C
5 | CC(C)C[C@H](NC(=O)CC[C@H](NS(=O)(=O)c1ccc(-c2ccccc2)cc1)C(=O)O)C(=O)O [Example 56] | 30 | 5 | 93 to 95 °C
6 | CSCC[C@H](NC(=O)CC[C@H](NS(=O)(=O)c1ccc(-c2ccccc2)cc1)C(=O)O)C(=O)O [Example 58] | 40 | 6 | 159 to 161 °C
7 | O=C(O)CC[C@H](NS(=O)(=O)c1ccc(-c2ccccc2)cc1)C(=O)O [Example 60] | 600 | 20 | 145 to 146 °C
8 | O=C(O)CC[C@@H](NS(=O)(=O)c1ccc(-c2ccccc2)cc1)C(=O)O [Example 61] | 400 | 20 | 155 to 158 °C
9 | CSCC[C@H](NC(=O)CC[C@H](NS(=O)(=O)c1ccc(-c2ccc(N(C)C)cc2)cc1)C(=O)O)C(=O)O [Example 62] | 7 | 2 | 121 °C
10 | CSCC[C@@H](NS(=O)(=O)c1ccc(-n2nccn2)cc1)C(=O)O [Example 67] | 1000 | 200 | 155.5 to 156.5 °C
11 | CN(C)c1ccc(-c2ccc(S(=O)(=O)N[C@@H](CCC(=O)O)C(=O)O)cc2)cc1 [Example 70] | 100 | 3 | > 108 °C (dec.)
12 | O=C(O)[C@@H](Cc1c[nH]c2ccccc12)NS(=O)(=O)c1ccc(-c2ccc(N3CCCC3)cc2)cc1 [Example 71] | 10 | 2 | > 145 °C (dec.)
13 | O=C(O)CC[C@H](NS(=O)(=O)c1ccc(-c2ccc(N3CCCC3)cc2)cc1)C(=O)O [Example 77] | 4 | 4 | > 220 °C (dec.)
14 | CNC(=O)c1ccc(NC(=O)CC[C@H](NS(=O)(=O)c2ccc(-c3ccccc3)cc2)C(=O)O)cc1 [Example 83] | 1000 | 20 | 250 to 250.5 °C
15 | COC(=O)c1ccc(NC(=O)CC[C@H](NS(=O)(=O)c2ccc(-c3ccccc3)cc2)C(=O)O)cc1 [Example 84] | 5000 | 2 | 245 to 245.5 °C
16 | N#Cc1ccc(NC(=O)CC[C@H](NS(=O)(=O)c2ccc(-c3ccccc3)cc2)C(=O)O)cc1 [Example 86] | 300 | 10 | 220 °C
17 | O=C(CC[C@H](NS(=O)(=O)c1ccc(-c2ccc(Cl)cc2)cc1)C(=O)O)Nc1ccc(F)cc1 [Example 87] | 30 | 5 | > 245 °C (dec.)
18 | O=C(CC[C@H](NS(=O)(=O)c1ccc(-c2ccc(N3CCCC3)cc2)cc1)C(=O)O)Nc1ccc(F)cc1 [Example 90] | 10 | 2 | > 245 °C (dec.)
19 | NC(=O)CC[C@H](NC(=O)CC[C@H](NS(=O)(=O)c1ccc(-c2ccccc2)cc1)C(=O)O)C(=O)O [Example 95] | 300 | 20 | > 110 °C (dec.)
20 | O=C(CC[C@H](NS(=O)(=O)c1ccc(-c2ccccc2)cc1)C(=O)O)Nc1ccncc1 [Example 97] | 1000 | 30 | > 290 °C (dec.)
21 | CCN(C(=O)CC[C@H](NS(=O)(=O)c1ccc(-c2ccccc2)cc1)C(=O)O)c1ccccc1 [Example 98] | 400 | 30 | > 155 °C (dec.)

More lines, now with the values ahead:

Row | IC50 (stromelysin (MMP-3)) [nM] | IC50 [1] [nM] | melting point | SMILES
22 | 400 | 20 | 159 to 162 °C | O=C(O)[C@@H](Cc1ccccc1)NS(=O)(=O)c1ccc(-c2ccc(C(F)(F)F)cc2)cc1 [Example 20]
23 | 20 | 2 | 258 to 260 °C | CN(C)c1ccc(-c2ccc(S(=O)(=O)N[C@H](Cc3c[nH]c4ccccc34)C(=O)O)cc2)cc1 [Example 66]
24 | 400 | 100 | 131 to 134 °C | O=C(O)[C@@H](Cc1c[nH]c2ccccc12)NS(=O)(=O)c1ccc(-n2nccn2)cc1 [Example 68]
25 | 100 | 10 | 187.5 to 188.5 °C | O=C(CC[C@H](NS(=O)(=O)c1ccc(-c2ccccc2)cc1)C(=O)O)Nc1ccccc1Cl [Example 74]
26 | 300 | 20 | 232 to 233 °C | O=C(CC[C@H](NS(=O)(=O)c1ccc(-c2ccccc2)cc1)C(=O)O)Nc1ccc([N+](=O)[O-])cc1 [Example 75]
27 | 20 | 4 | 234.5 to 235.5 °C | O=C(CC[C@H](NS(=O)(=O)c1ccc(-c2ccccc2)cc1)C(=O)O)Nc1ccccc1 [Example 79]
28 | 7 | 2 | > 228 °C (dec.) | O=C(CC[C@H](NS(=O)(=O)c1ccc(-c2ccc(N3CCCC3)cc2)cc1)C(=O)O)Nc1ccccc1 [Example 80]
29 | 10 | 2 | 240.5 to 241.5 °C (dec.) | CN(C)c1ccc(-c2ccc(S(=O)(=O)N[C@@H](CCC(=O)Nc3ccccc3)C(=O)O)cc2)cc1 [Example 81]
30 | 3000 | 30 | 265 °C | O=C(CC[C@H](NS(=O)(=O)c1ccc(-c2ccccc2)cc1)C(=O)O)Nc1ccc(C(F)(F)F)cc1 [Example 85]
31 | 300 | 20 | 219 to 221 °C | COc1ccc(NC(=O)CC[C@H](NS(=O)(=O)c2ccc(-c3ccccc3)cc2)C(=O)O)cc1 [Example 89]
32 | 300 | 10 | > 258 °C (dec.) | O=C(CC[C@H](NS(=O)(=O)c1ccc(-c2ccccc2)cc1)C(=O)O)Nc1ccc(F)cc1 [Example 91]
33 | 30 | 4 | 123.5 to 124.5 °C | O=C(CC[C@H](NS(=O)(=O)c1ccc(-c2ccccc2)cc1)C(=O)O)N[C@@H](Cc1ccccc1)C(=O)O [Example 92]
34 | 200 | 20 | > 250 °C (dec.) | O=C(O)[C@H](CCc1nc2ccccc2[nH]1)NS(=O)(=O)c1ccc(-c2ccccc2)cc1 [Example 93]
35 | 600 | 20 | > 245 °C (dec.) | O=C(CC[C@H](NS(=O)(=O)c1ccc(-c2ccccc2)cc1)C(=O)O)Nc1ccc(F)c(Cl)c1 [Example 96]
36 | 700 | 50 | > 230 °C (dec.) | CC(=O)Nc1ccc(NC(=O)CC[C@H](NS(=O)(=O)c2ccc(-c3ccccc3)cc2)C(=O)O)cc1 [Example 99]

Reference: patent US7160903B2, “Sulfonylaminocarboxylic acids” (Sanofi-Aventis Deutschland GmbH, priority 1997, dated 2007)
